# Calls of active or inactive are those of the source. The calls are words filed in the database; no cut-off is given here.
# Legend:
# [1] = target: 5-hydroxytryptamine receptor 2A (Homo sapiens, UniProt P28223); experiment: Displacement of radioligand from 5HT2 receptor by liquid scintillation spectrometry
# [2] = Displacement of radioligand from glycine receptor by liquid scintillation spectrometry
# [3] = target: D(2) dopamine receptor (Homo sapiens) (UniProt P14416); experiment: Displacement of radioligand from dopamine D2 receptor by liquid scintillation spectrometry
# [4] = Displacement of radioligand from calcium channel by liquid scintillation spectrometry
# [5] = target: T1, 5-hydroxytryptamine receptor 3A (Homo sapiens, UniProt P46098); experiment: Displacement of radioligand from 5HT3 receptor by liquid scintillation spectrometry
# T1 sequence (P46098 whole entry): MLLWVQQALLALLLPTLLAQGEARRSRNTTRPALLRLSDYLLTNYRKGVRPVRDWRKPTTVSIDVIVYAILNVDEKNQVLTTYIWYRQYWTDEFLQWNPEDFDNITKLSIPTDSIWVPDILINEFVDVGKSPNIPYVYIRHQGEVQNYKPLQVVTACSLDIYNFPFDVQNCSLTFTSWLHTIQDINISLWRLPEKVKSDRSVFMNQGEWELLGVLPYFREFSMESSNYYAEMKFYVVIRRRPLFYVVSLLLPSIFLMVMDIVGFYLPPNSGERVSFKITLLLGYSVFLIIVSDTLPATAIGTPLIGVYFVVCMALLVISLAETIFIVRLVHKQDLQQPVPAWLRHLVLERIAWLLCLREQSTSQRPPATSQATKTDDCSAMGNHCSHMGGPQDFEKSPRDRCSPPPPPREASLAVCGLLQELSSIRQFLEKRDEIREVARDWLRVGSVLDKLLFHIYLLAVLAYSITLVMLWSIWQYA
# [6] = target: T2, Adrenergic receptor alpha-1 (Rattus norvegicus, UniProt P15823+P23944+P43140); experiment: Displacement of radioligand from rat alpha1 adrenergic receptor by liquid scintillation spectrometry
# T2 sequence (P15823 whole entry): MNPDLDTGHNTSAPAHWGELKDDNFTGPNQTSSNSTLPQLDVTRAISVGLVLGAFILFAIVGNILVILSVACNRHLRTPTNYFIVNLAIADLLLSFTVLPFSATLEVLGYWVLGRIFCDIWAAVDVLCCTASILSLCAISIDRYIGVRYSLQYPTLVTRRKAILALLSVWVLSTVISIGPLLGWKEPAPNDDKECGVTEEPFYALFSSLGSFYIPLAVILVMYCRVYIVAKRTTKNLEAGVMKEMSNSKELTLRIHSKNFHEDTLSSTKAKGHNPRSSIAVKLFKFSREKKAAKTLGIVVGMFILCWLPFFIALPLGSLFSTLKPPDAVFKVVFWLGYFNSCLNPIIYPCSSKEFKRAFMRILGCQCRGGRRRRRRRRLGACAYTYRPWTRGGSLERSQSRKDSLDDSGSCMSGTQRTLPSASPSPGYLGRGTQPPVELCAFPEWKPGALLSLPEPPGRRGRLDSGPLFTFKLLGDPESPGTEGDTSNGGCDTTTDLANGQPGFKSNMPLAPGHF
# T2 sequence (P23944 whole entry): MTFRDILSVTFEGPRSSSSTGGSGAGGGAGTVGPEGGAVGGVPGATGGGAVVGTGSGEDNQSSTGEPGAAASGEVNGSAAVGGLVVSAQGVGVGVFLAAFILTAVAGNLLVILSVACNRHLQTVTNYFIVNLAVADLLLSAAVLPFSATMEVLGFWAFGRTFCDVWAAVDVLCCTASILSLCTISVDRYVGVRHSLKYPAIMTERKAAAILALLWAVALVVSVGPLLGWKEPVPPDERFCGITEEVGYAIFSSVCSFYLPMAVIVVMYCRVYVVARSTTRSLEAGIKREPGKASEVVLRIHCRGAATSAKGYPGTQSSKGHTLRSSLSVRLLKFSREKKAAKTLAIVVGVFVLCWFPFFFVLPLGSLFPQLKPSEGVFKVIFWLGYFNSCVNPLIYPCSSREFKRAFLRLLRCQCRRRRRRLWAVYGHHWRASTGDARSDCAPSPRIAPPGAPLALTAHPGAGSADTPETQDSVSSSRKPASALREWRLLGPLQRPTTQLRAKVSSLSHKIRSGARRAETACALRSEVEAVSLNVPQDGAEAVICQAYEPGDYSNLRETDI
# T2 sequence (P43140 whole entry): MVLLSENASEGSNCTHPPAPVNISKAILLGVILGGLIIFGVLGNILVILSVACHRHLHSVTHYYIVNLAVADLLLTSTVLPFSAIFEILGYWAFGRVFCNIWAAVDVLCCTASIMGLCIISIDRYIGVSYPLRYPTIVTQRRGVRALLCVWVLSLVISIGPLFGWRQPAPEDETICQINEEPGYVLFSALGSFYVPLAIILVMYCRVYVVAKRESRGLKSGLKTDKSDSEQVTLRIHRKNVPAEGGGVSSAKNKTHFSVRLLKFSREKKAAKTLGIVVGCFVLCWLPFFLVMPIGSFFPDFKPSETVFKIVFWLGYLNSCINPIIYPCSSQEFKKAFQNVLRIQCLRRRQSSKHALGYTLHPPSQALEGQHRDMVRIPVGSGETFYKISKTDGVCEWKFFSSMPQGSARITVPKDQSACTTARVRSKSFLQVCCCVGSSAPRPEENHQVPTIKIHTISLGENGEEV
# [7] = Displacement of radioligand from NMDA receptor by liquid scintillation spectrometry
# [8] = Displacement of radioligand from potassium channel by liquid scintillation spectrometry
# [9] = Displacement of radioligand from GABAA receptor by liquid scintillation spectrometry
# [10] = target: T3, Glucocorticoid receptor (Homo sapiens) (UniProt P04150); experiment: Displacement of radioligand from glucocorticoid receptor by liquid scintillation spectrometry
# T3 sequence (whole entry): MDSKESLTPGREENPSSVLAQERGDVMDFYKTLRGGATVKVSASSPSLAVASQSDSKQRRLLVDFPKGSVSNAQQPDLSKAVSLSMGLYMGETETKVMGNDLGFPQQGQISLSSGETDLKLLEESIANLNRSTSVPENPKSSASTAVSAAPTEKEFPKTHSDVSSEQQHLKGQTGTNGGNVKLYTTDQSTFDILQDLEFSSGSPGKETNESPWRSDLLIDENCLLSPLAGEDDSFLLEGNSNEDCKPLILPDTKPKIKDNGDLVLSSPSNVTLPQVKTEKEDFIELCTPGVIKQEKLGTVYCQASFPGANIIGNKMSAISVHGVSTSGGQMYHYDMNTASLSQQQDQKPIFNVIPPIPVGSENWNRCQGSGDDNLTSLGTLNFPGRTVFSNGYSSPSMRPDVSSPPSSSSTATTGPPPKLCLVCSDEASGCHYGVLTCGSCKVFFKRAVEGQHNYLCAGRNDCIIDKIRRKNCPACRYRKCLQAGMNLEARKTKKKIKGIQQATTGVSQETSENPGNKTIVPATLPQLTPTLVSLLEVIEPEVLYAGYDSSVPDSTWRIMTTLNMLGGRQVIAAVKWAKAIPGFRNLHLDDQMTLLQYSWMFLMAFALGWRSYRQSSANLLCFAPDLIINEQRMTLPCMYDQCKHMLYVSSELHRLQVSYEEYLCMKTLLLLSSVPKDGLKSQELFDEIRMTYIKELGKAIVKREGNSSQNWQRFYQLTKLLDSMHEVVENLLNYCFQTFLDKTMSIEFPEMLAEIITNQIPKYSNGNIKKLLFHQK
# [11] = target: T4, 5-hydroxytryptamine receptor 1A (Homo sapiens, UniProt P08908); experiment: Displacement of radioligand from 5HT1A receptor by liquid scintillation spectrometry
# T4 sequence (P08908 whole entry): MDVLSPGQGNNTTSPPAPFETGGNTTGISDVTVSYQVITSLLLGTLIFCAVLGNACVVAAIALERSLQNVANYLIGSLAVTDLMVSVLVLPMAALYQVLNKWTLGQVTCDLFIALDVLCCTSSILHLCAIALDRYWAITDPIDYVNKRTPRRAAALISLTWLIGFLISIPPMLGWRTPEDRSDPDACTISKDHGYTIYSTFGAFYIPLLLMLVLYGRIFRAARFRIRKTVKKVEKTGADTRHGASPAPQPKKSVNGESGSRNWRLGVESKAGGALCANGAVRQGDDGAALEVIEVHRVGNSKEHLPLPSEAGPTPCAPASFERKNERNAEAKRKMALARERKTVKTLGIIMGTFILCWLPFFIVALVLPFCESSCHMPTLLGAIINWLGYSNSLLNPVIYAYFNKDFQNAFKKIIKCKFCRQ
# [12] = Displacement of radioligand from AMPA receptor by liquid scintillation spectrometry
# [13] = target: T5, Adrenergic receptor alpha-2 (Rattus norvegicus, UniProt P22086+P19328+P22909); experiment: Displacement of radioligand from rat alpha2 adrenergic receptor by liquid scintillation spectrometry
# T5 sequence (P22086 whole entry): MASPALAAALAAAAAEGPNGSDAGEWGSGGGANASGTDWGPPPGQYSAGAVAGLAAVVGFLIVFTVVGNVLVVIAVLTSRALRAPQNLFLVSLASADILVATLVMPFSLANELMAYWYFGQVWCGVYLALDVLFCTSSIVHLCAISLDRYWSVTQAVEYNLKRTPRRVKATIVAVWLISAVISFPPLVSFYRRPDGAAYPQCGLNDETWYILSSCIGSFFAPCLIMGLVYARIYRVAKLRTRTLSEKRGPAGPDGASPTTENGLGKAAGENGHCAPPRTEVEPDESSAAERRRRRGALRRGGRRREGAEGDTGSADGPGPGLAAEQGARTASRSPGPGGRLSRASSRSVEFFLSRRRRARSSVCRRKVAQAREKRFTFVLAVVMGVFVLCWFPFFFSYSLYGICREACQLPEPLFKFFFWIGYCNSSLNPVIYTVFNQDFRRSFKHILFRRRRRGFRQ
# T5 sequence (P19328 whole entry): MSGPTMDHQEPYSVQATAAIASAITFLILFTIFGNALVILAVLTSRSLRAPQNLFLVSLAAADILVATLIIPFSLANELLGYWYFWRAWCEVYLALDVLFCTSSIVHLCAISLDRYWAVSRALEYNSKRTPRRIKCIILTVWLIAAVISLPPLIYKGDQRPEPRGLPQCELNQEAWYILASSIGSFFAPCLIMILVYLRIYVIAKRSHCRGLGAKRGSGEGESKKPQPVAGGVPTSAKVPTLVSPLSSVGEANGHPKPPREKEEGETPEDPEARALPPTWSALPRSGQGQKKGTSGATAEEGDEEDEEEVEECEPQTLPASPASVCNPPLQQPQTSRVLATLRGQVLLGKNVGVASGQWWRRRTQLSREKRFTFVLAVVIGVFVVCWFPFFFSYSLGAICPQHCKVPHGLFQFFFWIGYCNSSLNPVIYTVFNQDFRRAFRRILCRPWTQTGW
# T5 sequence (P22909 whole entry): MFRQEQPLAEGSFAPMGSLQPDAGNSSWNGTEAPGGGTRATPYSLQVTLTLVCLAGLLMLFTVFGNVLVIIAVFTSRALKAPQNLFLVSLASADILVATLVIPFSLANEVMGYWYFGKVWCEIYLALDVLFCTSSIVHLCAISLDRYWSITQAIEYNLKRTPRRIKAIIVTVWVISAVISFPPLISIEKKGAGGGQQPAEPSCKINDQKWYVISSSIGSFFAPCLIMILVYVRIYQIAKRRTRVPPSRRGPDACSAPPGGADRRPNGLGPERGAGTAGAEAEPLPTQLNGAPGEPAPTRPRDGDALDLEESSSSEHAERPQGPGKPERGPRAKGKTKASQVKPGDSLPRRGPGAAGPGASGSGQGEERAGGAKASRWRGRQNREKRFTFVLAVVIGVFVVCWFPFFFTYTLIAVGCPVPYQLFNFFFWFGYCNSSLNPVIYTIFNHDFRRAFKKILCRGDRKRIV
# [14] = target: D(1A) dopamine receptor (Homo sapiens) (UniProt P21728); experiment: Displacement of radioligand from dopamine D1 receptor by liquid scintillation spectrometry
# [15] = Displacement of radioligand from rat sodium channel batrachotoxin binding site by liquid scintillation spectrometry
# [16] = Displacement of radioligand from GABAB receptor by liquid scintillation spectrometry
# [17] = Displacement of radioligand from muscarinic receptor by liquid scintillation spectrometry
# Chain of 5-hydroxytryptamine receptor 2A (P28223 whole entry): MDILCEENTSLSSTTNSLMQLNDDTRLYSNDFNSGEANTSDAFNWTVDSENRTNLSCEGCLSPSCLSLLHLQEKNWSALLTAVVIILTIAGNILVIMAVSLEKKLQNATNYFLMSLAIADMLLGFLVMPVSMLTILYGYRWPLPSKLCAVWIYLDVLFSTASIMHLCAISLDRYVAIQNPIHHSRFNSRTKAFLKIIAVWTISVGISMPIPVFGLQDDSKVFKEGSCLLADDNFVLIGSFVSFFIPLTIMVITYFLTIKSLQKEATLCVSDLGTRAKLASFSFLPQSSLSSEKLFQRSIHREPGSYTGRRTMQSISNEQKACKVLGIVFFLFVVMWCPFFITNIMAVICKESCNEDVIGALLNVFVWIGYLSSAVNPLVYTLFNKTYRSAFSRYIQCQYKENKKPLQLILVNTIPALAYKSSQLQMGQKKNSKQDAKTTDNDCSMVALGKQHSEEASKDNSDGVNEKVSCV
# Chain of D(2) dopamine receptor (Homo sapiens) (P14416 whole entry): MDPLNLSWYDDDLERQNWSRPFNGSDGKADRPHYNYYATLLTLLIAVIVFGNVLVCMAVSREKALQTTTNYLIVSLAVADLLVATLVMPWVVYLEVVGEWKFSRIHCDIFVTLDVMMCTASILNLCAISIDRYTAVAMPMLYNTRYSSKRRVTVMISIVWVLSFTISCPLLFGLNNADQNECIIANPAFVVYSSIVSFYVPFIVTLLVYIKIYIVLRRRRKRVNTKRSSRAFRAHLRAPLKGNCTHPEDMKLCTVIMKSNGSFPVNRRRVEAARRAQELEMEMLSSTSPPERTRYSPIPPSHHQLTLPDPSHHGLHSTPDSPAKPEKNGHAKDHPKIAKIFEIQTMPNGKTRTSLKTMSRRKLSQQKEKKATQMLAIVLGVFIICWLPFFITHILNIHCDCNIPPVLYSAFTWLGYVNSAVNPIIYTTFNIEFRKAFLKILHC
# Chain of D(1A) dopamine receptor (Homo sapiens) (P21728 whole entry): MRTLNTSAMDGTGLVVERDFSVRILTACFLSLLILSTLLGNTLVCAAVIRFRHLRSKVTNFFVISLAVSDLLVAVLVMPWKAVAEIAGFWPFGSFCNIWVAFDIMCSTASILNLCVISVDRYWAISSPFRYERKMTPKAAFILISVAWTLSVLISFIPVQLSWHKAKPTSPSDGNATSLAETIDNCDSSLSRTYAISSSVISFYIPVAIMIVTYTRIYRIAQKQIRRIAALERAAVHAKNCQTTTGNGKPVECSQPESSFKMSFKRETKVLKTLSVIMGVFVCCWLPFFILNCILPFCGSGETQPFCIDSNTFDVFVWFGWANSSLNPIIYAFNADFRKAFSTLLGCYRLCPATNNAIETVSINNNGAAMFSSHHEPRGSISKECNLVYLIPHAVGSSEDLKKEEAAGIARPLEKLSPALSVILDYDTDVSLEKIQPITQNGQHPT
smiles,measurement,setting,value
CC[C@]12CCCN3CC[C@@]4([C@H]5CCCC[C@H]5N[C@H]4[C@@H](C(=O)OC)C1)[C@@H]32.Cl.Cl,IC50,[1],> 10 µM
same,Activity,[2],inactive
same,Activity,[3],inactive
same,Activity,[4],inactive
same,IC50,[5],> 100 µM
same,Ki,[6],> 100 µM
same,Activity,[7],inactive
same,Activity,[8],inactive
same,Activity,[9],inactive
same,Activity,[10],inactive
same,IC50,[11],> 10 µM
same,Activity,[12],inactive
same,Ki,[13],> 100 µM
same,Activity,[14],inactive
same,Ki,[15],3.7 µM
same,Activity,[16],inactive
same,Activity,[17],inactive
CC[C@]12CCCN3CC[C@@]4([C@H]5CCCC[C@H]5N[C@H]4[C@@H](C(=O)[O-])C1)[C@@H]32.[Na+],IC50,[1],> 10 µM
same,Activity,[2],inactive
same,Activity,[3],inactive
same,Activity,[4],inactive
same,IC50,[5],> 100 µM
same,Ki,[6],> 100 µM
same,Activity,[7],inactive
same,Activity,[8],inactive
same,Activity,[9],inactive
same,Activity,[10],inactive
same,IC50,[11],> 10 µM
same,Activity,[12],inactive
same,Ki,[13],> 100 µM
same,Activity,[14],inactive
same,Ki,[15],> 10 µM
same,Activity,[16],inactive
same,Activity,[17],inactive
COc1ccc(C(=O)O[C@H]2CC[C@@]3(C)[C@@H]4CC[C@H]5[C@]6(O)C[C@H](O)[C@@]7(O)[C@@H](CN8C[C@@H](C)CC[C@H]8[C@@]7(C)O)[C@]6(O)C[C@@]53O[C@]24O)cc1OC [VERATRIDINE],Ki,[15],2.1 µM

# Source: ChEMBL document CHEMBL1145679, “Perhydrogenation of tabersonine, ans Aspidiosperma indole alkaloid” (J Nat Prod, 1997)
